Measured values as given in US20230301300A1, “HERBICIDAL COMPOSITIONS” (SYNGENTA CROP PROTECTION AG, priority 2020, published 2023).

Experiments:
Format in all cases: in vivo
Setaria faberi (SETFA) [1] = experiment: B2 Post-Emergence Efficacy - Test 2; conditions: 15 days after application, 0=no damage, 100=total kill
Procedure: (§1) Seeds of a variety of test species (see Table B1) were sown in standard soil in pots. After cultivation for 12 days (post-emergence) under controlled conditions in a glasshouse (at 24/18° C. or 20/16° C., at day/night; 16 hours light; 65% humidity), the plants were sprayed with an aqueous spray solution derived from the formulation of the technical active ingredient dissolved in IF50 (see Table B2 for composition) and adjuvant (Genapol X080) was added to the spray solution at a rate of 0.2% v/v.
(§2) After application, the test plants were grown in a glasshouse under controlled conditions (as above) and watered twice daily. Herbicidal activity was evaluated 15 days after application on a 0-100 scale. The results, where 0=no damage to test plant and 100=total kill of test plant are shown below in Tables 8 to 11.

Bidens pilosa (BIDPI) = experiment: B2 Post-Emergence Efficacy - Test 2; conditions: 15 days after application, 0-100 scale
Procedure: as §1, §2

[2] = test system: Triticum aestivum (TRZAW); experiment: B2 Post-Emergence Efficacy - Test 2; conditions: 15 days after application, 0-100 scale
Procedure: as §1, §2

[3] = test system: Echinochloa crus galli (ECHCG); experiment: B2 Post-Emergence Efficacy - Test 2; conditions: 15 days after application, 0=no damage, 100=total kill
Procedure: as §1, §2

Orysa sativa (ORYSA) = experiment: B2 Post-Emergence Efficacy - Test 2; conditions: 15 days after application; for Herbicidal activity ORYSA: 0-100 scale; for Herbicidal activity on a 0-100 scale, ORYSA: 0=no damage, 100=total kill
Procedure: as §1, §2

Hordeum vulgare (HORVW) = experiment: B2 Post-Emergence Efficacy - Test 2; conditions: 15 days after application, 0-100 scale
Procedure: as §1, §2

[4] = test system: Amaranthus retroflexus (AMARE); experiment: B2 Post-Emergence Efficacy - Test 2; conditions: 15 days after application, 0-100 scale
Procedure: as §1, §2

[5] = test system: Brachiaria plantaginea (BRAPL); experiment: B2 Post-Emergence Efficacy - Test 2; conditions: 15 days after application, 0=no damage, 100=total kill
Procedure: as §1, §2

Kochia scoparia (KSHSC) = experiment: B2 Post-Emergence Efficacy - Test 2; conditions: 15 days after application, 0-100 scale
Procedure: as §1, §2

[6] = test system: Chenopodium album (CHEAL); experiment: B2 Post-Emergence Efficacy - Test 2; conditions: 15 days after application, 0-100 scale
Procedure: as §1, §2

Veronica persica (VERPE) = experiment: B2 Post-Emergence Efficacy - Test 2; conditions: 15 days after application, 0-100 scale
Procedure: as §1, §2

Stellaria media (STEME) = experiment: B2 Post-Emergence Efficacy - Test 2; conditions: 15 days after application, 0-100 scale
Procedure: as §1, §2

[7] = test system: Amaranthus retoflexus (AMARE); experiment: B1 Post-Emergence Efficacy - Test 1; conditions: 1000 g/ha, after 13 days, five point scale
Procedure: (§3) Seeds of a variety of test species are sown in standard soil in pots:— Solanum nigrum (SOLNI), Amaranthus retoflexus (AMARE), Setaria faberi (SETFA), Alopecurus myosuroides (ALOMY), Echinochloa crus-galli (ECHCG), Ipomoea hederacea (IPOHE), Lolium perenne (LOLPE). After 8 days cultivation (post-emergence) under controlled conditions in a glasshouse (at 24/16° C., day/night; 14 hours light; 65% humidity), the plants are sprayed with an aqueous spray solution derived from the formulation of the technical active ingredient in acetone/water (50:50) solution containing 0.5% Tween 20 (polyoxyethylene sorbitan monolaurate, CAS RN 9005-64-5). Compounds are applied at 1000 g/ha. The test plants are then grown in a glasshouse under controlled conditions in a glasshouse (at 24/16° C., day/night; 14 hours light; 65% humidity) and watered twice daily. After 13 days, the test is evaluated for the percentage damage caused to the plant. The biological activities are assessed on a five point scale (5=80-100%; 4=60-79%; 3=40-59%; 2=20-39%; 1=0-19%). A blank value in the table is indicative that the compound was not tested on that species.

Setaria faberi (SETFA) [8] = experiment: B1 Post-Emergence Efficacy - Test 1; conditions: 1000 g/ha, after 13 days, five point scale
Procedure: as §3

Solanum nigrum (SOLNI) = experiment: B1 Post-Emergence Efficacy - Test 1; conditions: 1000 g/ha, after 13 days, five point scale
Procedure: as §3

[9] = test system: Ipomoea hederacea (IPOHE); experiment: B1 Post-Emergence Efficacy - Test 1; conditions: 1000 g/ha, after 13 days, five point scale
Procedure: as §3

[10] = test system: Echinochloa crus-galli (ECHCG); experiment: B1 Post-Emergence Efficacy - Test 1; conditions: 1000 g/ha, after 13 days, five point scale
Procedure: as §3

Lolium perenne (LOLPE) = experiment: B1 Post-Emergence Efficacy - Test 1; conditions: 1000 g/ha, after 13 days, five point scale
Procedure: as §3

Cc1nn(C)c(=O)c(-c2c(F)ccc(Cl)c2CCc2ccc(F)cc2)c1O [Compound 1.048, 4-[3-chloro-6-fluoro-2-[2-(4-fluorophenyl)ethyl]phenyl]-5-hydroxy-2,6-dimethyl-pyridazin-3-one]
Herbicidal activity on a 0-100 scale, SETFA (Setaria faberi (SETFA) [1]; 15 g/Ha): 0
Herbicidal activity on a 0-100 scale, SETFA (Setaria faberi (SETFA) [1]; 30 g/Ha): 40
Herbicidal activity on a 0-100 scale, SETFA (Setaria faberi (SETFA) [1]; 60 g/Ha): 40
Herbicidal activity on a 0-100 scale, SETFA (Setaria faberi (SETFA) [1]; 125 g/Ha): 70
Herbicidal activity on a 0-100 scale, SETFA (Setaria faberi (SETFA) [1]; 250 g/Ha): 80
Herbicidal activity on a 0-100 scale, SETFA (Setaria faberi (SETFA) [1]; 500 g/Ha): 100
Herbicidal activity BIDPI (Bidens pilosa (BIDPI); 15 g/Ha): 70
Herbicidal activity BIDPI (Bidens pilosa (BIDPI); 30 g/Ha): 70
Herbicidal activity BIDPI (Bidens pilosa (BIDPI); 60 g/Ha): 70
Herbicidal activity BIDPI (Bidens pilosa (BIDPI); 125 g/Ha): 70
Herbicidal activity BIDPI (Bidens pilosa (BIDPI); 250 g/Ha): 100
Herbicidal activity BIDPI (Bidens pilosa (BIDPI); 500 g/Ha): 100
Herbicidal activity TRZAW ([2]; 15 g/Ha): 0
Herbicidal activity TRZAW ([2]; 30 g/Ha): 10
Herbicidal activity TRZAW ([2]; 60 g/Ha): 20
Herbicidal activity TRZAW ([2]; 125 g/Ha): 20
Herbicidal activity TRZAW ([2]; 250 g/Ha): 50
Herbicidal activity TRZAW ([2]; 500 g/Ha): 80
Herbicidal activity on a 0-100 scale, ECHCG ([3]; 15 g/Ha): 60
Herbicidal activity on a 0-100 scale, ECHCG ([3]; 30 g/Ha): 80
Herbicidal activity on a 0-100 scale, ECHCG ([3]; 60 g/Ha): 80
Herbicidal activity on a 0-100 scale, ECHCG ([3]; 125 g/Ha): 90
Herbicidal activity on a 0-100 scale, ECHCG ([3]; 250 g/Ha): 90
Herbicidal activity on a 0-100 scale, ECHCG ([3]; 500 g/Ha): 100
Herbicidal activity ORYSA (Orysa sativa (ORYSA); 15 g/Ha): 0
Herbicidal activity on a 0-100 scale, ORYSA (Orysa sativa (ORYSA); 15 g/Ha): 0
Herbicidal activity ORYSA (Orysa sativa (ORYSA); 30 g/Ha): 0
Herbicidal activity on a 0-100 scale, ORYSA (Orysa sativa (ORYSA); 30 g/Ha): 0
Herbicidal activity ORYSA (Orysa sativa (ORYSA); 60 g/Ha): 0
Herbicidal activity on a 0-100 scale, ORYSA (Orysa sativa (ORYSA); 60 g/Ha): 0
Herbicidal activity ORYSA (Orysa sativa (ORYSA); 125 g/Ha): 0
Herbicidal activity on a 0-100 scale, ORYSA (Orysa sativa (ORYSA); 125 g/Ha): 0
Herbicidal activity ORYSA (Orysa sativa (ORYSA); 250 g/Ha): 10
Herbicidal activity on a 0-100 scale, ORYSA (Orysa sativa (ORYSA); 250 g/Ha): 10
Herbicidal activity ORYSA (Orysa sativa (ORYSA); 500 g/Ha): 30
Herbicidal activity on a 0-100 scale, ORYSA (Orysa sativa (ORYSA); 500 g/Ha): 30
Herbicidal activity HORVW (Hordeum vulgare (HORVW); 15 g/Ha): 10
Herbicidal activity HORVW (Hordeum vulgare (HORVW); 30 g/Ha): 10
Herbicidal activity HORVW (Hordeum vulgare (HORVW); 60 g/Ha): 10
Herbicidal activity HORVW (Hordeum vulgare (HORVW); 125 g/Ha): 40
Herbicidal activity HORVW (Hordeum vulgare (HORVW); 250 g/Ha): 40
Herbicidal activity HORVW (Hordeum vulgare (HORVW); 500 g/Ha): 80
Herbicidal activity AMARE ([4]; 15 g/Ha): 60
Herbicidal activity AMARE ([4]; 30 g/Ha): 80
Herbicidal activity AMARE ([4]; 60 g/Ha): 90
Herbicidal activity AMARE ([4]; 125 g/Ha): 90
Herbicidal activity AMARE ([4]; 250 g/Ha): 100
Herbicidal activity AMARE ([4]; 500 g/Ha): 100
Herbicidal activity on a 0-100 scale, BRAPL ([5]; 15 g/Ha): 20
Herbicidal activity on a 0-100 scale, BRAPL ([5]; 30 g/Ha): 60
Herbicidal activity on a 0-100 scale, BRAPL ([5]; 60 g/Ha): 80
Herbicidal activity on a 0-100 scale, BRAPL ([5]; 125 g/Ha): 80
Herbicidal activity on a 0-100 scale, BRAPL ([5]; 250 g/Ha): 90
Herbicidal activity on a 0-100 scale, BRAPL ([5]; 500 g/Ha): 100
Herbicidal activity KCHSC (Kochia scoparia (KSHSC); 15 g/Ha): 0
Herbicidal activity KCHSC (Kochia scoparia (KSHSC); 30 g/Ha): 0
Herbicidal activity KCHSC (Kochia scoparia (KSHSC); 60 g/Ha): 10
Herbicidal activity KCHSC (Kochia scoparia (KSHSC); 125 g/Ha): 20
Herbicidal activity KCHSC (Kochia scoparia (KSHSC); 250 g/Ha): 50
Herbicidal activity KCHSC (Kochia scoparia (KSHSC); 500 g/Ha): 80
Herbicidal activity CHEAL ([6]; 125 g/Ha): 70
Herbicidal activity CHEAL ([6]; 250 g/Ha): 90
Herbicidal activity CHEAL ([6]; 500 g/Ha): 100
Herbicidal activity VERPE (Veronica persica (VERPE); 15 g/Ha): 60
Herbicidal activity VERPE (Veronica persica (VERPE); 30 g/Ha): 80
Herbicidal activity VERPE (Veronica persica (VERPE); 60 g/Ha): 90
Herbicidal activity VERPE (Veronica persica (VERPE); 125 g/Ha): 80
Herbicidal activity VERPE (Veronica persica (VERPE); 250 g/Ha): 100
Herbicidal activity VERPE (Veronica persica (VERPE); 500 g/Ha): 100
Herbicidal activity STEME (Stellaria media (STEME); 15 g/Ha): 90
Herbicidal activity STEME (Stellaria media (STEME); 30 g/Ha): 90
Herbicidal activity STEME (Stellaria media (STEME); 60 g/Ha): 90
Herbicidal activity STEME (Stellaria media (STEME); 125 g/Ha): 100
Herbicidal activity STEME (Stellaria media (STEME); 250 g/Ha): 100
Herbicidal activity STEME (Stellaria media (STEME); 500 g/Ha): 100
percentage damage caused to the plant, AMARE [7]: 5 (5=80-100%)
percentage damage caused to the plant, SETFA (Setaria faberi (SETFA) [8]): 5 (5=80-100%)
percentage damage caused to the plant, SOLNI (Solanum nigrum (SOLNI)): 5 (5=80-100%)
percentage damage caused to the plant, IPOHE [9]: 5 (5=80-100%)
percentage damage caused to the plant, ECHCG [10]: 5 (5=80-100%)
percentage damage caused to the plant, LOLPE (Lolium perenne (LOLPE)): 5 (5=80-100%)
